Experimental data: paper PMC5513037, “Examining the influence of specificity ligands and ATP-competitive ligands on the overall effectiveness of bivalent kinase inhibitors” (Proteome Science, 2017)

Tests used:
Experiment in all cases: KAM-matrix competition in K562 lysate;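 on 0.001 uM KAM: median log10 fold change of treatment over DMSO control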;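 on 0.01 uM KAM: median log10 fold change of treatment over DMSO control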;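 on 0.1 uM KAM: median log10 fold change of treatment over DMSO control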;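 on 1 uM KAM: median log10 fold change of treatment over DMSO control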;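 on 10 uM KAM: median log10 fold change of treatment over DMSO control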
Type in all cases: binding
NPR2 = target: T1, NPR2 (Homo sapiens, UniProt P20594);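 on 0.001 uM KAM: median log10 fold change of treatment over DMSO control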;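 on 0.01 uM KAM: median log10 fold change of treatment over DMSO control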;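 on 0.1 uM KAM: median log10 fold change of treatment over DMSO control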;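 on 1 uM KAM: median log10 fold change of treatment over DMSO control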;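 on 10 uM KAM: median log10 fold change of treatment over DMSO control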
T1 construct: endogenous in cells; host or cells: K562
T1 sequence (P20594 23-1047): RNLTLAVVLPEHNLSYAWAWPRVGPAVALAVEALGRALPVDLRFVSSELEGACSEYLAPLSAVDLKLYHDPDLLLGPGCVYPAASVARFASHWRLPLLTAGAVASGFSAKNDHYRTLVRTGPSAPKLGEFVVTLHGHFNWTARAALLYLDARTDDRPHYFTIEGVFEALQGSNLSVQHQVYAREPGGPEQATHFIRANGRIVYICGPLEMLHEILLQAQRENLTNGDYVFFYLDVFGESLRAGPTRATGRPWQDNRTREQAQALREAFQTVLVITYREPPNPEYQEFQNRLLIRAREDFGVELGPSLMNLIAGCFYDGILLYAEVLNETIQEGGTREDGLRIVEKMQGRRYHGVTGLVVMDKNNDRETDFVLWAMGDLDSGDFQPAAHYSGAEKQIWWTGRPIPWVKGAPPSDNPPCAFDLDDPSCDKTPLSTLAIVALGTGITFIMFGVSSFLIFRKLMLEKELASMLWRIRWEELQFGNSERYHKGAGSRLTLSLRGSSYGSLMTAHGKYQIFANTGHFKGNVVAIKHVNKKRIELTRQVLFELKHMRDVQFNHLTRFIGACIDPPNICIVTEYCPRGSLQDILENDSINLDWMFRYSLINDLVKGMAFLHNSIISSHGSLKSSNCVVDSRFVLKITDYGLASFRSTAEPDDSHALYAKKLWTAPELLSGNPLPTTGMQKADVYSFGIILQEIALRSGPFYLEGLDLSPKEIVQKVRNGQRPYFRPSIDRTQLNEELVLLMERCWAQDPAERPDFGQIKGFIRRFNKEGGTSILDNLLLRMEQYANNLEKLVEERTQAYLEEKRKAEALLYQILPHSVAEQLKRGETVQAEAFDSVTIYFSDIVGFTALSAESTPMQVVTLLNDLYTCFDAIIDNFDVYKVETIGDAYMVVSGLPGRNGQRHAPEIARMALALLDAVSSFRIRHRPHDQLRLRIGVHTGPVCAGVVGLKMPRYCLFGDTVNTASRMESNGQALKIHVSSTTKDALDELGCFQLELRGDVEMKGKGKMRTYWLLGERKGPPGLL
Protocol: (§1) Supplement 12953_2017_125_MOESM1_ESM.zip/MS_Supp Info.xlsx, sheet "KAM" | column: 10 uM KAM; 1 uM KAM; 0.1 uM KAM; 0.01 uM KAM; 0.001 uM KAM; RB50

PAK2 = target: T2, PAK2 (Homo sapiens, UniProt Q13177);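 on 0.001 uM KAM: median log10 fold change of treatment over DMSO control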;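 on 0.01 uM KAM: median log10 fold change of treatment over DMSO control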;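 on 0.1 uM KAM: median log10 fold change of treatment over DMSO control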;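 on 1 uM KAM: median log10 fold change of treatment over DMSO control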;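 on 10 uM KAM: median log10 fold change of treatment over DMSO control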
T2 construct: endogenous in cells; host or cells: K562
T2 sequence (Q13177 whole entry): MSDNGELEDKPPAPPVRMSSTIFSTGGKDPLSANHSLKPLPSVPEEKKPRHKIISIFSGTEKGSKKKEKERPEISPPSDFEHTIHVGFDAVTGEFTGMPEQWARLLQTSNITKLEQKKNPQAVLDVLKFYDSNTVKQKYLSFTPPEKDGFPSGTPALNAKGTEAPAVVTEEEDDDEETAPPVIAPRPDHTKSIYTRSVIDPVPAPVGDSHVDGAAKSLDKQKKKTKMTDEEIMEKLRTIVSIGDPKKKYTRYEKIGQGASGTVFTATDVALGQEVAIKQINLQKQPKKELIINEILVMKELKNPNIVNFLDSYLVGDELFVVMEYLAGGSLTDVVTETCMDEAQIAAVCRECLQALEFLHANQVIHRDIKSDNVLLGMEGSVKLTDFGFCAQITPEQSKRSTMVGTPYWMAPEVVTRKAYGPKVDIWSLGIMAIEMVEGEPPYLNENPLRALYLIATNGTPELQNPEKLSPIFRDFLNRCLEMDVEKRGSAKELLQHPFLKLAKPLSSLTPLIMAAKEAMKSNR
Protocol: as §1

CSNK1A1 = target: T3, CSNK1A1 (Homo sapiens, UniProt P48729);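 on 0.001 uM KAM: median log10 fold change of treatment over DMSO control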;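 on 0.01 uM KAM: median log10 fold change of treatment over DMSO control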;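 on 0.1 uM KAM: median log10 fold change of treatment over DMSO control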;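 on 1 uM KAM: median log10 fold change of treatment over DMSO control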;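 on 10 uM KAM: median log10 fold change of treatment over DMSO control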
T3 construct: endogenous in cells; host or cells: K562
T3 sequence (P48729 whole entry): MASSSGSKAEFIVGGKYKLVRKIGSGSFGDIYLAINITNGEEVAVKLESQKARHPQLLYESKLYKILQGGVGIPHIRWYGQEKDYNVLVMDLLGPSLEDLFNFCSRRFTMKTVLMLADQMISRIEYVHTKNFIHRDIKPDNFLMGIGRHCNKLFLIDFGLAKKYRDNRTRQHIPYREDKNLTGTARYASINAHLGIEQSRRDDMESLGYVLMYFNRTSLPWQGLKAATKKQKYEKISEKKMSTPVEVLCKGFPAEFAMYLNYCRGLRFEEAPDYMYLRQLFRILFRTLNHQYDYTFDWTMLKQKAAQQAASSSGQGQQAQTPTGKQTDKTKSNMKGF
Protocol: as §1

CDK2 = target: T4, CDK2 (Homo sapiens, UniProt P24941)
T4 construct: endogenous in cells; host or cells: K562
Protocol: as §1

MARK3 = target: T5, MARK3 (Homo sapiens, UniProt P27448)
T5 construct: endogenous in cells; host or cells: K562
T5 sequence (P27448 whole entry): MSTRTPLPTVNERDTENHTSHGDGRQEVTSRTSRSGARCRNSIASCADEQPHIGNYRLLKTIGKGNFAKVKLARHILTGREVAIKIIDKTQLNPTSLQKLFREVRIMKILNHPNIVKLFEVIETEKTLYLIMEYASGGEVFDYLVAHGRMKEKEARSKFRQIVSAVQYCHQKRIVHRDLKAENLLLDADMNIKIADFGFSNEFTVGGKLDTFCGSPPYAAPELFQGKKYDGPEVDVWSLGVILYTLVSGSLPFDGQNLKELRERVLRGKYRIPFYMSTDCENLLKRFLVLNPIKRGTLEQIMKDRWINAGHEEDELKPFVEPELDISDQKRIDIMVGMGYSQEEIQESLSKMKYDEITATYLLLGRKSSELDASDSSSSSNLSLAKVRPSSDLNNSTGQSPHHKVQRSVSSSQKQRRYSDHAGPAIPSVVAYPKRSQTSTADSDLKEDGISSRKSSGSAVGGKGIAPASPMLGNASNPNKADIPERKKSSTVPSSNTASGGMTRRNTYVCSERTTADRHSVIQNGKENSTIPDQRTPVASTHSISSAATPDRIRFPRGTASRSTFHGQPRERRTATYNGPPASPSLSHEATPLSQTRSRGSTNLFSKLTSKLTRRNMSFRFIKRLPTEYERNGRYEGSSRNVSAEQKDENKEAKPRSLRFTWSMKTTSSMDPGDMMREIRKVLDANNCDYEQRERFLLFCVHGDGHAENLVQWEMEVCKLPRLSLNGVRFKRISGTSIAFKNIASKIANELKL
Protocol: as §1

DYRK1A = target: T6, DYRK1A (Homo sapiens, UniProt Q13627)
T6 construct: endogenous in cells; host or cells: K562
Protocol: as §1

PBK = target: T7, PBK (Homo sapiens, UniProt Q96KB5);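 on 0.001 uM KAM: median log10 fold change of treatment over DMSO control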;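 on 0.01 uM KAM: median log10 fold change of treatment over DMSO control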;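 on 0.1 uM KAM: median log10 fold change of treatment over DMSO control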;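 on 1 uM KAM: median log10 fold change of treatment over DMSO control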;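 on 10 uM KAM: median log10 fold change of treatment over DMSO control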
T7 construct: endogenous in cells; host or cells: K562
T7 sequence (Q96KB5 1-322): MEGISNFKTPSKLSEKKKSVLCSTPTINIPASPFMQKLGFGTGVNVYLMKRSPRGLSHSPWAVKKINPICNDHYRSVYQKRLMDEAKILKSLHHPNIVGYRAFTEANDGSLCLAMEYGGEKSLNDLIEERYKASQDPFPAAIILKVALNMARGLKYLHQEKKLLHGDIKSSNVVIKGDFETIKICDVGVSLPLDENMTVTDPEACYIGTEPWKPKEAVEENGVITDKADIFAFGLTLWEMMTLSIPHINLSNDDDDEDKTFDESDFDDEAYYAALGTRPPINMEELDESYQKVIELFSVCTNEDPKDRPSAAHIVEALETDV
Protocol: as §1

TNK2 = target: T8, TNK2 (Homo sapiens, UniProt Q07912);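 on 0.001 uM KAM: median log10 fold change of treatment over DMSO control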;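 on 0.01 uM KAM: median log10 fold change of treatment over DMSO control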;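 on 0.1 uM KAM: median log10 fold change of treatment over DMSO control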;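 on 1 uM KAM: median log10 fold change of treatment over DMSO control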;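 on 10 uM KAM: median log10 fold change of treatment over DMSO control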
T8 construct: endogenous in cells; host or cells: K562
T8 sequence (Q07912 whole entry): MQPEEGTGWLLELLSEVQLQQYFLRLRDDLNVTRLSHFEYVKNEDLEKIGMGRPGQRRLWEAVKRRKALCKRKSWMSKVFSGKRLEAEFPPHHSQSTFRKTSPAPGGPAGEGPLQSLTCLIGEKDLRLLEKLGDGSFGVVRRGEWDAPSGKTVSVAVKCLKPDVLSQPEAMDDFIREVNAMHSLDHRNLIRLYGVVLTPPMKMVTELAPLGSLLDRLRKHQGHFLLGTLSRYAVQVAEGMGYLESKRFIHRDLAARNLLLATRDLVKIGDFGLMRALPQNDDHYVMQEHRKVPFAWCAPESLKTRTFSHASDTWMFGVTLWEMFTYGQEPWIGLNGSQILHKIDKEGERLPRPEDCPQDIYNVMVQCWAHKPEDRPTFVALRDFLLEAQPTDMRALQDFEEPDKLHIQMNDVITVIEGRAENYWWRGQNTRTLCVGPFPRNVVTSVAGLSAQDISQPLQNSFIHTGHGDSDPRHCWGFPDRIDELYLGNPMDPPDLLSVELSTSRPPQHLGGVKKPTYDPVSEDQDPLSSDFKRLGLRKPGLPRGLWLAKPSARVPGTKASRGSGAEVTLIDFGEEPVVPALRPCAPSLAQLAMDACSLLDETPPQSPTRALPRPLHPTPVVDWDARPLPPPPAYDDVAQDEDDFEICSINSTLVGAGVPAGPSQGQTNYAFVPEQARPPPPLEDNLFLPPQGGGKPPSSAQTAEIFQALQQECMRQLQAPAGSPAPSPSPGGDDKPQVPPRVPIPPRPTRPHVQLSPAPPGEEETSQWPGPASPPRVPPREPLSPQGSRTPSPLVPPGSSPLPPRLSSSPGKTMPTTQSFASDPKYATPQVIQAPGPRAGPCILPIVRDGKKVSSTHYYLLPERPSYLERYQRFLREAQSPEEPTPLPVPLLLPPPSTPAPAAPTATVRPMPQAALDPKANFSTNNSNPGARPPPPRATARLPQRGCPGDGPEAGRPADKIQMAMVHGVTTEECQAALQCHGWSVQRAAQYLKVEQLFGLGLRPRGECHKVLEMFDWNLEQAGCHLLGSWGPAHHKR
Protocol: as §1

LIMK2 = target: T9, LIMK2 (Homo sapiens, UniProt P53671);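 on 0.001 uM KAM: median log10 fold change of treatment over DMSO control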;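 on 0.01 uM KAM: median log10 fold change of treatment over DMSO control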;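 on 0.1 uM KAM: median log10 fold change of treatment over DMSO control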;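 on 1 uM KAM: median log10 fold change of treatment over DMSO control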;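 on 10 uM KAM: median log10 fold change of treatment over DMSO control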
T9 construct: endogenous in cells; host or cells: K562
T9 sequence (P53671 whole entry): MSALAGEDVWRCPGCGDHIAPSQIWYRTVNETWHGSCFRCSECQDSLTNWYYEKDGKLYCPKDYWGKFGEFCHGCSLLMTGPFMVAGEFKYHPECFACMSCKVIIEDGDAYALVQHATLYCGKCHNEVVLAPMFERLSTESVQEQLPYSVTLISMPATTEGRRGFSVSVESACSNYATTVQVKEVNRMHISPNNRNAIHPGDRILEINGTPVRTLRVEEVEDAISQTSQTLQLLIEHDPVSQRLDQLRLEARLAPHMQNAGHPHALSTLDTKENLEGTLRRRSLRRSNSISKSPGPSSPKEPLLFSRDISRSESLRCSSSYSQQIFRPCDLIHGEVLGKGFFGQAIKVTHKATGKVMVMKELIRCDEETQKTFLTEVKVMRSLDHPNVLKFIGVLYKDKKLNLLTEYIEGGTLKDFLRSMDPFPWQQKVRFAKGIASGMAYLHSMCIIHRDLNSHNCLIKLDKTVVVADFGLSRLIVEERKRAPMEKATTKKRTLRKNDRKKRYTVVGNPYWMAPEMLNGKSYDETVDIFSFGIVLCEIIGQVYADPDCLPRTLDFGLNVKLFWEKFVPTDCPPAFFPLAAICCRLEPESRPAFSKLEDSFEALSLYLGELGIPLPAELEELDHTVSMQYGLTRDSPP
Protocol: as §1

INSR = target: T10, INSR (Homo sapiens, UniProt P06213);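 on 0.001 uM KAM: median log10 fold change of treatment over DMSO control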;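 on 0.01 uM KAM: median log10 fold change of treatment over DMSO control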;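 on 0.1 uM KAM: median log10 fold change of treatment over DMSO control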;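 on 1 uM KAM: median log10 fold change of treatment over DMSO control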;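 on 10 uM KAM: median log10 fold change of treatment over DMSO control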
T10 construct: endogenous in cells; host or cells: K562
T10 sequence (P06213 28-1382): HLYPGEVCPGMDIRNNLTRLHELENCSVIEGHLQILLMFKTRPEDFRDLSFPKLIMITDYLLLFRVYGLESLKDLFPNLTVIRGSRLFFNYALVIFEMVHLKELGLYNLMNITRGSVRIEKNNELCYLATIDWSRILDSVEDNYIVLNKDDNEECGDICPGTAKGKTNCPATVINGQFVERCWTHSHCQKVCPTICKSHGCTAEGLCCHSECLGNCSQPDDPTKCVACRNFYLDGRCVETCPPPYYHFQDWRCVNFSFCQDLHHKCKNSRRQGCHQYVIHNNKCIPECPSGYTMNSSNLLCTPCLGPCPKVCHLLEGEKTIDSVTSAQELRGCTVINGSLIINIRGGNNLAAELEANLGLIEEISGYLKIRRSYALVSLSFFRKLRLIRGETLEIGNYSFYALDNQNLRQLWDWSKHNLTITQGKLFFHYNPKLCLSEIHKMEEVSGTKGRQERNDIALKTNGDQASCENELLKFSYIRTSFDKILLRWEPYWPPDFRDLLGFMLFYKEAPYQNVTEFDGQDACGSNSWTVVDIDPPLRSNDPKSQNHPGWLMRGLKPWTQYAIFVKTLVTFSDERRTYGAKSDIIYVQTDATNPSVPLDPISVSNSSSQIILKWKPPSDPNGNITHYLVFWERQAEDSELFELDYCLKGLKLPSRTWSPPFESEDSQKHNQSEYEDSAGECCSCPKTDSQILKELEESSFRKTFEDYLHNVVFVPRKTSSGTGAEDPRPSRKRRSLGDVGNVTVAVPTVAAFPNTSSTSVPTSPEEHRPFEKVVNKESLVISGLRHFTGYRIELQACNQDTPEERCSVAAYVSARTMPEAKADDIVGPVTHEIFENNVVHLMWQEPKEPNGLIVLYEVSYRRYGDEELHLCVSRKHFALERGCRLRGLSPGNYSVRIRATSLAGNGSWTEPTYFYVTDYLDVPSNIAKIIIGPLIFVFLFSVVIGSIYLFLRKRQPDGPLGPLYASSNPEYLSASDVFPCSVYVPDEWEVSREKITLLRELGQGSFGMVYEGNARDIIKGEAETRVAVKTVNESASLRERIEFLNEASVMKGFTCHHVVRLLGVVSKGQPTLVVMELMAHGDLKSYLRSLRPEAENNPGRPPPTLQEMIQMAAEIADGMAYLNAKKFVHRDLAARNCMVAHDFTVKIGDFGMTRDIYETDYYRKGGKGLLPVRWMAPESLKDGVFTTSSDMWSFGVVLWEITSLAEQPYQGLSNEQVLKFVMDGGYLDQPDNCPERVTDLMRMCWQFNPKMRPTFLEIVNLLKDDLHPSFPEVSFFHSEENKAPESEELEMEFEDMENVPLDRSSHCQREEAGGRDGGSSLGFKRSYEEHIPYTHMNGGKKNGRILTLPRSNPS
Protocol: as §1

[1] = KAM 0.001-10 uM, read-out: RB50 (the source's name)
[2] = read-out: RB50 (the source's name)

N#CCc1ccc(Nc2nc(NCCCN)cc(Nc3cc(C4CC4)[nH]n3)n2)cc1 [KAM]
IC50 (NPR2; [1]): > 10 µM
0.001 uM KAM (NPR2; relative to 0 uM KAM = 0): -0.04196
0.01 uM KAM (NPR2; relative to 0 uM KAM = 0): -0.03427
0.1 uM KAM (NPR2; relative to 0 uM KAM = 0): -0.06644
1 uM KAM (NPR2; relative to 0 uM KAM = 0): -0.002813
10 uM KAM (NPR2; relative to 0 uM KAM = 0): -0.07947
IC50 (PAK2; [1]): > 10 µM
0.001 uM KAM (PAK2; relative to 0 uM KAM = 0): 0.07363
0.01 uM KAM (PAK2; relative to 0 uM KAM = 0): 0.03748
0.1 uM KAM (PAK2; relative to 0 uM KAM = 0): 0.116
1 uM KAM (PAK2; relative to 0 uM KAM = 0): 0.1461
10 uM KAM (PAK2; relative to 0 uM KAM = 0): 0.07777
IC50 (CSNK1A1; [1]): > 10 µM
0.001 uM KAM (CSNK1A1; relative to 0 uM KAM = 0): 0.05671
0.01 uM KAM (CSNK1A1; relative to 0 uM KAM = 0): -0.02341
0.1 uM KAM (CSNK1A1; relative to 0 uM KAM = 0): 0.02518
1 uM KAM (CSNK1A1; relative to 0 uM KAM = 0): 0.03521
10 uM KAM (CSNK1A1; relative to 0 uM KAM = 0): -0.008144
median Log10 fold change (CDK2; 0.001 uM KAM): -0.01597
median Log10 fold change (CDK2; 0.01 uM KAM): -0.009383
median Log10 fold change (CDK2; 0.1 uM KAM): -0.2687
median Log10 fold change (CDK2; 1 uM KAM): -0.5288
median Log10 fold change (CDK2; 10 uM KAM): -0.6805
IC50 (CDK2; [2]): 0.177 µM
median Log10 fold change (MARK3; 0.001 uM KAM): -0.0002127
median Log10 fold change (MARK3; 0.01 uM KAM): -0.02099
median Log10 fold change (MARK3; 0.1 uM KAM): -0.2742
median Log10 fold change (MARK3; 1 uM KAM): -0.5652
median Log10 fold change (MARK3; 10 uM KAM): -0.6472
IC50 (MARK3; [2]): 0.16 µM
median Log10 fold change (DYRK1A; 0.001 uM KAM): -0.05439
median Log10 fold change (DYRK1A; 0.01 uM KAM): -0.0501
median Log10 fold change (DYRK1A; 0.1 uM KAM): -0.184
median Log10 fold change (DYRK1A; 1 uM KAM): -0.2641
median Log10 fold change (DYRK1A; 10 uM KAM): -0.4024
IC50 (DYRK1A; [2]): 1.47 µM
IC50 (PBK; [1]): > 10 µM
0.001 uM KAM (PBK; relative to 0 uM KAM = 0): 0.04398
0.01 uM KAM (PBK; relative to 0 uM KAM = 0): 0.009269
0.1 uM KAM (PBK; relative to 0 uM KAM = 0): 0.0383
1 uM KAM (PBK; relative to 0 uM KAM = 0): 0.01738
10 uM KAM (PBK; relative to 0 uM KAM = 0): 0.0482
IC50 (TNK2; [1]): > 10 µM
0.001 uM KAM (TNK2; relative to 0 uM KAM = 0): 0.001973
0.01 uM KAM (TNK2; relative to 0 uM KAM = 0): -0.007052
0.1 uM KAM (TNK2; relative to 0 uM KAM = 0): -0.06006
1 uM KAM (TNK2; relative to 0 uM KAM = 0): -0.2026
10 uM KAM (TNK2; relative to 0 uM KAM = 0): -0.2086
IC50 (LIMK2; [1]): > 10 µM
0.001 uM KAM (LIMK2; relative to 0 uM KAM = 0): -0.04927
0.01 uM KAM (LIMK2; relative to 0 uM KAM = 0): -0.08611
0.1 uM KAM (LIMK2; relative to 0 uM KAM = 0): -0.1176
1 uM KAM (LIMK2; relative to 0 uM KAM = 0): -0.1595
10 uM KAM (LIMK2; relative to 0 uM KAM = 0): 0.03187
IC50 (INSR; [1]): > 10 µM
0.001 uM KAM (INSR; relative to 0 uM KAM = 0): -0.0389
0.01 uM KAM (INSR; relative to 0 uM KAM = 0): 0.002129
0.1 uM KAM (INSR; relative to 0 uM KAM = 0): -0.09696
1 uM KAM (INSR; relative to 0 uM KAM = 0): -0.2508
10 uM KAM (INSR; relative to 0 uM KAM = 0): -0.2556
